Where two headings read alike, the source gives them in different places.
Tests used:
[1] = system: LNCaP cells; test: MTT colorimetric anti-proliferative assay; assay type: cell-based, human; conditions: for GI50: LNCaP, MTT, 7 days; for fold loss/reduction in anti-proliferative activity: relative to lead compound 5 (or parent 32)
Description: The cells were treated for 7 days with renewal of test compound and media on day 4. On the 7th day, medium was renewed and MTT (3-(4,5-dimethylthiazol-2-yl)-2,5-diphenyl-2H-tetrazolium bromide) (Sigma, St Louis, Mo., USA) solution (0.5 mg MTT per ml of media) was added to the medium such that the ratio of MTT: medium was 1:10. The cells were incubated with MTT for 2 hours. The medium was then aspirated and DMSO was added to solubilize the violet MTT-formazan product.

[2] = biological target: T1, AR (Homo sapiens, UniProt P10275, T878A); test: AR down-regulation, western blot analysis in LNCaP cells; assay type: cell-based; conditions: 24 h, western blot
T1 construct: host or cells: LNCaP
T1 sequence (P10275 1-920 T878A): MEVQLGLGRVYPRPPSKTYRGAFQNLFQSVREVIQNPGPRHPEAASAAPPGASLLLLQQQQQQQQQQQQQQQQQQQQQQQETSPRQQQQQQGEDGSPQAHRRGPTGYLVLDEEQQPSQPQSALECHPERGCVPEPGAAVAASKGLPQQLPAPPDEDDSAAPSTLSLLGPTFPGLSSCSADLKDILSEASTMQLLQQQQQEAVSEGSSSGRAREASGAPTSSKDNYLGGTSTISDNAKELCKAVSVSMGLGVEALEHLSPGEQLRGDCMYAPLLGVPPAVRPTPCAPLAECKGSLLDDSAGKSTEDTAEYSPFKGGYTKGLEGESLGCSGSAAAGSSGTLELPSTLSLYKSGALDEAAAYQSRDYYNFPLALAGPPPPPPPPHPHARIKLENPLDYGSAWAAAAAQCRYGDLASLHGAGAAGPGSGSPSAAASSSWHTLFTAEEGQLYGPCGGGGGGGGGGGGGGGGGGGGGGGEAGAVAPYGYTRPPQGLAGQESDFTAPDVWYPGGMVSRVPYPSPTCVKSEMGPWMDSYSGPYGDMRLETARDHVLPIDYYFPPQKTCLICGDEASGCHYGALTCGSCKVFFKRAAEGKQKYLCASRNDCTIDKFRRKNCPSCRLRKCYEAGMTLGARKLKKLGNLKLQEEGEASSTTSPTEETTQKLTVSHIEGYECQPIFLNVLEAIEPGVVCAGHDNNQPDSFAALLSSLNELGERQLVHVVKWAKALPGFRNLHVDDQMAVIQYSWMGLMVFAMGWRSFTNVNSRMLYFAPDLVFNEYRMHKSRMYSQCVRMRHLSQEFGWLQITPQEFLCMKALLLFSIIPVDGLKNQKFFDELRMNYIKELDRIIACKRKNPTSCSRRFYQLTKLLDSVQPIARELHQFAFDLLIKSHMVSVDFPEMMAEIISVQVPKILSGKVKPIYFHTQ
Description: For the Western blot analyses, LNCaP or CWR22v1 prostate cancer cells were cultured. The cells were then treated with the indicated compounds and whole cell lysates were prepared using RIPA lysis buffer (Sigma Aldrich) and protease and phosphatase inhibitors (Sigma Aldrich). All of the antibodies were ordered from cell signaling technology. Protein content was determined using the Bradford Assay (Bio-Rad, Hercules, Calif., USA). Protein was subjected to SDS-PAGE and transferred onto nitrocellulosemembrane. Membranes were then incubated with secondary antibody (cell signaling technology) at room temperature for 1 hour. Bands were visualized by chemiluminescence (Millipore). Protein expression was normalized to β-actin and densitometry was carried out using Image J or ImageQuant 5.0 (Molecular Dynamics, Sunnyvale, Calif., USA). CWR22Rv1 cells were used for endogenous levels of splice variant AR-3. Protein levels were analyzed with respective antibodies; full length AR and β-actin antibodies were purchased from cell signaling, antibody specific for splice variant AR-3 was obtained from Dr. Yun Qiu, University of Maryland, School of Medicine, Baltimore.

[3] = Table 4, read-out: GI50 of C-3 modified compounds
[4] = Homo sapiens, 168 h, Table 2, read-out: GI50 of C-17 modified compounds
[5] = Table 2, read-out: GI50 of C-17 modified compounds
[6] = Homo sapiens, 168 h, Table 4, read-out: GI50 of C-3 modified compounds

Compound | GI50 [1, 3] [µM] | AR down-regulation (ARD) activity, in words [2] | melting point [°C] | other results
3β-(3-(Oxycarbonyl)phenylacetic acid)-17-(1H-benzimidazol-1-yl)-androsta-5,16-diene [Compound 44] | 7.78 | – | – | –
CON=C1C=C2CC[C@@H]3[C@H](CC[C@]4(C)C(n5cnc6ccccc65)=CC[C@@H]34)[C@@]2(C)CC1 (mixture of isomers) [Compound 38, 3-((EZ)-O-Methyloxime)-17-(1H-Benzimidazol-1-yl)-androsta-4,16-diene] | 3.38 | – | – | –
C[C@]12CCC(=NOCc3ccccc3)C=C1CC[C@@H]1[C@@H]2CC[C@]2(C)C(n3cnc4ccccc43)=CC[C@@H]12 (mixture of isomers) [Compound 39, 3-((EZ)-(O-Phenylmethyl)oxime)-17-(1H-Benzimidazol-1-yl)-androsta-4,16-diene] | 5.57 | – | – | –
Cc1cc2ncn(C3=CC[C@H]4[C@@H]5CC=C6C[C@@H](O)CC[C@]6(C)[C@H]5CC[C@]34C)c2cc1C [Compound 17, 3β-Hydroxy-17-(5,6-dimethyl-1H-benzimidazol-1-yl)-androsta-5,16-diene] | – | substantial loss | 194 to 196 | GI50 [1, 4]: 42.7 µM
C[C@]12CC[C@H](O)CC1=CC[C@@H]1[C@@H]2CC[C@]2(C)C(n3cnc4cc(C#N)ccc43)=CC[C@@H]12 [Compound 18, 3β-Hydroxy-17-(5(6)-nitrile-1H-benzimidazol-1-yl)-androsta-5,16-diene] | – | diminished AR down-regulation (ARD) activity | – | GI50 [1, 5]: 2.81 µM
COc1ccc2ncn(C3=CC[C@H]4[C@@H]5CC=C6C[C@@H](O)CC[C@]6(C)[C@H]5CC[C@]34C)c2c1 [Compound 19, 3β-Hydroxy-17-(6-methoxy-1H-benzimidazol-1-yl)-androsta-5,16-diene] | – | no modulation of ARDA | 169 to 179 | GI50 [1, 5]: 4.26 µM
C[C@]12CC[C@H](O)CC1=CC[C@@H]1[C@@H]2CC[C@]2(C)C(n3cnc4cc5ccccc5cc43)=CC[C@@H]12 [Compound 20, 3β-Hydroxy-17-(1H-benzo[f]benzimidazol-1-yl)-androsta-5,16-diene] | – | significant loss of ARDA | 150 to 152 | GI50 [1, 4]: 19.1 µM
C[C@]12CC[C@H](O)CC1=CC[C@@H]1[C@@H]2CC[C@]2(C)C(n3cnc4c(Cl)ncnc43)=CC[C@@H]12 [Compound 21, 3β-Hydroxy-17-(6-Chloro-9H-purin-9-yl)-androsta-5,16-diene] | – | – | 272 to 274 | GI50 [1, 5]: 13.5 µM; fold loss/reduction in anti-proliferative activity [1]: 4 fold
C[C@]12CC[C@H](O)CC1=CC[C@@H]1[C@@H]2CC[C@]2(C)C(n3c(Cl)nc4ccccc43)=CC[C@@H]12 [Compound 22, 3β-Hydroxy-17-(2-chloro-1H-benzimidazol-1-yl)-androsta-5,16-diene] | – | – | 83 to 86 | GI50 [1, 4]: 10.1 µM; fold loss/reduction in anti-proliferative activity [1]: 3 fold
CC(C)CCNCC1=C(n2cnc3ccccc32)[C@@]2(C)CC[C@H]3[C@@H](CC=C4C[C@@H](O)CC[C@@]43C)[C@@H]2C1 [Compound 25, 3β-Hydroxy-17-(1H-benzimidazol-1-yl)-16-((isopentylamino)methyl)-androsta-5,16-diene] | – | significant loss of ARD | 111 to 113 | –
C[C@]12CC[C@H](O)CC1=CC[C@@H]1[C@@H]2CC[C@]2(C)C(n3cnc4ccccc43)=C(CNc3ccccc3)C[C@@H]12 [Compound 28, 3β-Hydroxy-17-(1H-benzimidazol-1-yl)-16-((phenylamino)methyl)-androsta-5,16-diene] | – | significant loss of ARD | 130 to 132 | GI50 ([1]; Homo sapiens, 168 h, LNCaP cells, Table 3, read-out: GI50 of C-16 modified compounds): 22.1 µM
C[C@]12CCC(=O)C=C1CC[C@@H]1[C@@H]2CC[C@]2(C)C(n3cnc4ccccc43)=CC[C@@H]12 [Compound 32, 17-(1H-Benzimidazol-1-yl)-androsta-4,16-dien-3-one] | – | – | – | GI50 [1, 6]: 2.64 µM
C[C@]12CCC(=O)CC1=CC[C@@H]1[C@@H]2CC[C@]2(C)C(n3cnc4ccccc43)=CC[C@@H]12 [Compound 33, 17-(1H-Benzimidazol-1-yl)-androsta-5,16-dien-3-one] | – | – | 170 to 172 | GI50 [1, 6]: 16 µM; fold loss/reduction in anti-proliferative activity [1]: ~5 fold
C[C@]12CC[C@H](OS(C)(=O)=O)CC1=CC[C@@H]1[C@@H]2CC[C@]2(C)C(n3cnc4ccccc43)=CC[C@@H]12 [Compound 34, 3β-Mesyloxy-17-(1H-benzimidazol-1-yl)-androsta-5,16-dien] | – | – | – | GI50 [1, 6]: 42.1 µM
Cc1ccc(S(=O)(=O)O[C@H]2CC[C@@]3(C)C(=CC[C@@H]4[C@@H]3CC[C@]3(C)C(n5cnc6ccccc65)=CC[C@@H]43)C2)cc1 [Compound 35, 3β-Tosyloxy-17-(1H-benzimidazol-1-yl)-androsta-5,16-dien] | 47.2 | – | 139 to 141 | –
CC1(O)C=C2CC[C@@H]3[C@H](CC[C@]4(C)C(n5cnc6ccccc65)=CC[C@@H]34)[C@@]2(C)CC1 (stereo partly drawn) [Compound 40, 3-Methyl-3-hydroxy-17-(1H-benzimidazol-1-yl)-androsta-4,16-diene] | – | – | 95 to 97 | GI50 [1, 6]: 13.3 µM; fold loss/reduction in anti-proliferative activity [1]: ~5 fold
C[C@]12CC[C@H](OC(=O)C3CC=CCC3C(=O)O)CC1=CC[C@@H]1[C@@H]2CC[C@]2(C)C(n3cnc4ccccc43)=CC[C@@H]12 (stereo partly drawn) [Compound 45, 3β-(6-(Cyclohex-3-enecaboxylic acid)carboxylate)-17-(1H-benzimidazol-1-yl)-androsta-5,16-diene] | 8.22 | – | – | –
C[C@]12CC[C@H](OC(=O)COCC(=O)O)CC1=CC[C@@H]1[C@@H]2CC[C@]2(C)C(n3cnc4ccccc43)=CC[C@@H]12 [Compound 46, 3β-(Oxycarbonyl-(methoxy)acetic acid)-17-(1H-benzimidazol-1-yl)-androsta-5,16-diene] | 9.13 | – | – | –
C[C@]12CC[C@H](OC(=O)n3cncn3)CC1=CC[C@@H]1[C@@H]2CC[C@]2(C)C(n3cnc4ccccc43)=CC[C@@H]12 [Compound 49, 3β-(1H-1,2,4-Triazole-1-carboxylate)-17-(1H-benzimidazol-1-yl)-androsta-5,16-diene] | 6.67 | – | – | fold decrease in anti-proliferative activity ([1]; relative to 47): ~8 fold
